Results reported in ChEMBL document CHEMBL1201862, “PubChem BioAssay data set” (2004).
Several values for one entry are separate records, joined by “and”; a condition that tells them apart may be missing. Equal values may be shown once.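 Five compound concentrations were applied to cells in 96-well plates for 48 hours; endpoints were derived by simple linear interpolation of the resulting dose-response curve. GI50 = concentration required for 50% inhibition of growth.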 Activity calls are given as the source filed them. Cut-off read from the data, not from the text of the source: active = GI50 up to about 1.1 µM and inactive = higher.

Key:
Experiment in all cases: NCI-60 cell line screen, 48 h
[1] = tested on: MDA-MB-435
[2] = tested on: SNB-75
[3] = tested on: HOP-92
[4] = tested on: RXF 393
[5] = tested on: Malme-3M
[6] = tested on: NCI-H460
[7] = tested on: U-251
[8] = tested on: M14
[9] = tested on: SK-MEL-2
[10] = tested on: SF-268
[11] = tested on: T47D
[12] = tested on: RPMI-8226
[13] = tested on: MOLT-4
[14] = tested on: MCF7
[15] = tested on: NCI-H23
[16] = tested on: COLO 205
[17] = tested on: CCRF-CEM
[18] = tested on: OVCAR-4
[19] = tested on: HL-60
[20] = tested on: OVCAR-5
[21] = tested on: 786-0
[22] = tested on: SK-MEL-28
[23] = tested on: CAKI-1
[24] = tested on: SW-620
[25] = tested on: NCI/ADR-RES
[26] = tested on: K562
[27] = tested on: IGROV-1
[28] = tested on: ACHN
[29] = tested on: SR
[30] = tested on: SK-OV-3
[31] = tested on: A549
[32] = tested on: HOP-62
[33] = tested on: UACC-62
[34] = tested on: SK-MEL-5
[35] = tested on: OVCAR-3
[36] = tested on: HCC 2998
[37] = tested on: KM12
[38] = tested on: LOX IMVI
[39] = tested on: DU-145
[40] = tested on: HCT-15
[41] = tested on: EKVX
[42] = tested on: OVCAR-8
[43] = tested on: MDA-N
[44] = tested on: NCI-H522
[45] = tested on: UACC-257
[46] = tested on: HT-29
[47] = tested on: SN12C
[48] = tested on: HCT-116
[49] = tested on: SF-295
[50] = tested on: SF-539
[51] = tested on: TK-10
[52] = tested on: A498
[53] = tested on: PC-3
[54] = tested on: MDA-MB-231
[55] = tested on: UO-31
[56] = tested on: SNB-19
[57] = tested on: NCI-H226

SMILES: C=CCNc1nc(C#N)c(N)s1
- GI50 [1]: > 10 µM (inactive)
- GI50 [2]: > 10 µM (inactive)
- GI50 [3]: > 10 µM (inactive)
- GI50 [4]: > 10 µM (inactive)
- GI50 [5]: > 10 µM (inactive)
- GI50 [6]: > 10 µM (inactive)
- GI50 [7]: > 10 µM (inactive)
- GI50 [8]: > 10 µM (inactive)
- GI50 [9]: > 10 µM (inactive)
- GI50 [10]: > 10 µM (inactive)
- GI50 [11]: > 10 µM (inactive)
- GI50 [12]: > 10 µM (inactive)
- GI50 [13]: > 10 µM (inactive)
- GI50 [14]: > 10 µM (inactive)
- GI50 [15]: > 10 µM (inactive)
- GI50 [16]: > 10 µM (inactive)
- GI50 [17]: > 10 µM (inactive)
- GI50 [18]: > 10 µM (inactive)
- GI50 [19]: > 10 µM (inactive)
- GI50 [20]: > 10 µM (inactive)
- GI50 [21]: > 10 µM (inactive)
- GI50 [22]: > 10 µM (inactive)
- GI50 [23]: > 10 µM (inactive)
- GI50 [24]: > 10 µM (inactive)
- GI50 [25]: > 10 µM (inactive)
- GI50 [26]: > 10 µM (inactive)
- GI50 [27]: > 10 µM (inactive)
- GI50 [28]: > 10 µM (inactive)
- GI50 [29]: > 10 µM (inactive)
- GI50 [30]: > 10 µM (inactive)
- GI50 [31]: > 10 µM (inactive)
- GI50 [32]: > 10 µM (inactive)
- GI50 [33]: > 10 µM (inactive)
- GI50 [34]: > 10 µM (inactive)

SMILES: CCc1c(C)c(C#N)c(=S)n(C2OC(COC(C)=O)C(OC(C)=O)C(OC(C)=O)C2OC(C)=O)c1C (stereo not drawn)
- GI50 [35]: > 100 µM (inactive)
- GI50 [1]: > 100 µM (inactive)
- GI50 [2]: 0.0113 µM (active)
- GI50 [5]: > 100 µM (inactive)
- GI50 [6]: > 100 µM (inactive)
- GI50 [8]: 39.4 µM (inactive) and 46.2 µM (inactive)
- GI50 [9]: 13 µM (inactive)
- GI50 [10]: > 100 µM (inactive) and 73.5 µM (inactive)
- GI50 [11]: > 100 µM (inactive)
- GI50 [36]: > 100 µM (inactive)
- GI50 [37]: > 100 µM (inactive)
- GI50 [38]: > 100 µM (inactive)
- GI50 [13]: > 100 µM (inactive)
- GI50 [39]: > 100 µM (inactive)
- GI50 [14]: > 100 µM (inactive)
- GI50 [15]: > 100 µM (inactive)
- GI50 [16]: > 100 µM (inactive)
- GI50 [17]: > 100 µM (inactive)
- GI50 [18]: > 100 µM (inactive) and 80.7 µM (inactive)
- GI50 [40]: > 100 µM
- GI50 [41]: 87.1 µM (inactive)
- GI50 [19]: > 100 µM (inactive)
- GI50 [22]: > 100 µM (inactive)
- GI50 [23]: > 100 µM (inactive)
- GI50 [42]: > 100 µM (inactive)
- GI50 [24]: > 100 µM (inactive)
- GI50 [43]: > 100 µM (inactive)
- GI50 [25]: > 100 µM (inactive)
- GI50 [26]: > 100 µM (inactive)
- GI50 [27]: > 100 µM (inactive)
- GI50 [29]: > 100 µM (inactive)
- GI50 [44]: > 100 µM (inactive) and 52.8 µM (inactive)
- GI50 [31]: 92.9 µM (inactive)
- GI50 [45]: > 100 µM (inactive)
- GI50 [46]: > 100 µM (inactive)
- GI50 [34]: > 100 µM (inactive)
- GI50 [47]: > 100 µM (inactive)

SMILES: CCCC1(N2C(=O)c3ccc4c5c(ccc(c35)C2=O)N(C2(CCC)CCCCC2)C4=O)CCCCC1
- GI50 [48]: > 100 µM (inactive)
- GI50 [35]: > 100 µM (inactive)
- GI50 [1]: > 100 µM (inactive)
- GI50 [3]: > 100 µM (inactive)
- GI50 [4]: > 100 µM (inactive)
- GI50 [5]: > 100 µM (inactive)
- GI50 [49]: > 100 µM (inactive)
- GI50 [6]: > 100 µM (inactive)
- GI50 [50]: > 100 µM (inactive)
- GI50 [7]: > 100 µM (inactive)
- GI50 [51]: > 100 µM (inactive)
- GI50 [8]: > 100 µM (inactive)
- GI50 [9]: > 100 µM (inactive)
- GI50 [10]: > 100 µM (inactive)
- GI50 [11]: > 100 µM (inactive)
- GI50 [52]: > 100 µM (inactive)
- GI50 [36]: > 100 µM (inactive)
- GI50 [37]: > 100 µM (inactive)
- GI50 [12]: > 100 µM (inactive)
- GI50 [53]: > 100 µM (inactive)
- GI50 [13]: > 100 µM (inactive)
- GI50 [54]: > 100 µM (inactive)
- GI50 [39]: > 100 µM (inactive)
- GI50 [14]: > 100 µM (inactive)
- GI50 [55]: > 100 µM (inactive)
- GI50 [15]: > 100 µM (inactive)
- GI50 [56]: > 100 µM (inactive)
- GI50 [16]: > 100 µM (inactive)
- GI50 [18]: > 100 µM (inactive)
- GI50 [40]: > 100 µM
- GI50 [20]: > 100 µM (inactive)
- GI50 [21]: > 100 µM (inactive)
- GI50 [22]: > 100 µM (inactive)
- GI50 [23]: > 100 µM (inactive)
- GI50 [42]: > 100 µM (inactive)
- GI50 [24]: > 100 µM (inactive)
- GI50 [43]: > 100 µM (inactive)
- GI50 [25]: > 100 µM (inactive)
- GI50 [26]: > 100 µM (inactive)
- GI50 [28]: > 100 µM (inactive)
- GI50 [44]: > 100 µM (inactive)
- GI50 [30]: > 100 µM (inactive)
- GI50 [31]: > 100 µM (inactive)
- GI50 [32]: > 100 µM (inactive)
- GI50 [46]: > 100 µM (inactive)
- GI50 [33]: > 100 µM (inactive)
- GI50 [34]: > 100 µM (inactive)
- GI50 [47]: > 100 µM (inactive)

SMILES: O=C(NNCc1ccccc1O)c1ccccc1O
- GI50 [48]: 3.1 µM (inactive)
- GI50 [35]: 0.766 µM (active)
- GI50 [57]: 24 µM (inactive)
- GI50 [1]: 3.06 µM (inactive)
- GI50 [2]: 21.9 µM (inactive)
- GI50 [3]: 33 µM (inactive)
- GI50 [4]: 25.2 µM (inactive)
- GI50 [5]: 15.1 µM (inactive)
- GI50 [49]: 2.51 µM (inactive)
- GI50 [50]: 16.5 µM (inactive)
- GI50 [7]: 5.75 µM (inactive)
- GI50 [51]: 31.4 µM (inactive)
- GI50 [8]: 9.16 µM (inactive)
- GI50 [9]: 4.65 µM (inactive)
- GI50 [11]: 3.48 µM (inactive)
- GI50 [52]: 31.4 µM (inactive)
- GI50 [36]: 4.01 µM (inactive)
- GI50 [37]: 8.91 µM (inactive)
- GI50 [12]: 3.27 µM (inactive)
- GI50 [53]: 24.9 µM (inactive)
- GI50 [38]: 3.09 µM (inactive)
- GI50 [13]: 1.75 µM (inactive)
- GI50 [54]: > 100 µM (inactive)
- GI50 [39]: 3.22 µM (inactive)
- GI50 [14]: 12.5 µM (inactive)
- GI50 [55]: 1.92 µM (inactive)
- GI50 [15]: 9.84 µM (inactive)
- GI50 [56]: 36.6 µM (inactive)
- GI50 [16]: 7.93 µM (inactive)
- GI50 [17]: 0.735 µM (active)
- GI50 [18]: 26 µM (inactive)
- GI50 [40]: 1.19 µM
- GI50 [41]: 5.89 µM (inactive)
- GI50 [19]: 0.495 µM (active)
- GI50 [20]: 3.59 µM (inactive)
- GI50 [21]: 11 µM (inactive)
- GI50 [22]: 8.41 µM (inactive)
- GI50 [23]: 9.55 µM (inactive)
- GI50 [42]: 14.4 µM (inactive)
- GI50 [24]: 3.48 µM (inactive)
- GI50 [43]: 7.57 µM (inactive)
- GI50 [25]: 8.85 µM (inactive)
- GI50 [26]: 3.3 µM (inactive)
- GI50 [27]: 1.13 µM (inactive)
- GI50 [28]: 5.12 µM (inactive)
- GI50 [44]: 2.28 µM (inactive)
- GI50 [30]: 7.71 µM (inactive)
- GI50 [31]: 8.13 µM (inactive)
- GI50 [45]: 29.2 µM (inactive)
- GI50 [32]: 7.52 µM (inactive)
- GI50 [46]: 9.38 µM (inactive)
- GI50 [33]: 5.42 µM (inactive)
- GI50 [34]: 3.06 µM (inactive)
- GI50 [47]: 4.03 µM (inactive)
